Counter-ions that a name gives are not always drawn.
Target: rat 5-HT7 receptors (Rattus norvegicus (Rat), UniProt P32305)
Test: r5-HT7 competitive radioligand binding assay ([3H]5-CT)
Conditions: membrane fractions of HEK-293 cells recombinantly expressing rat 5-HT7
Experimental: Compound affinity for the rat 5-HT7 receptor subtype was evaluated by competitive radioligand binding assays using 5-carboxamido[^3H]tryptamine ([^3H]5-CT) (Amersham Biosciences, cat. 90000403) detection. HitHunter™ cAMP assays are in-vitro based competitive immunoassays. […] Cells were pre-incubated with test compounds for 10 minutes. For agonistic testing, the concentration of test compound that produced a half-maximal response is represented by the EC50 value. Compounds were assayed in their free form or as salts, as indicated in the Examples section above.

rat 5-HT7 receptors, sequence (P32305 1-435): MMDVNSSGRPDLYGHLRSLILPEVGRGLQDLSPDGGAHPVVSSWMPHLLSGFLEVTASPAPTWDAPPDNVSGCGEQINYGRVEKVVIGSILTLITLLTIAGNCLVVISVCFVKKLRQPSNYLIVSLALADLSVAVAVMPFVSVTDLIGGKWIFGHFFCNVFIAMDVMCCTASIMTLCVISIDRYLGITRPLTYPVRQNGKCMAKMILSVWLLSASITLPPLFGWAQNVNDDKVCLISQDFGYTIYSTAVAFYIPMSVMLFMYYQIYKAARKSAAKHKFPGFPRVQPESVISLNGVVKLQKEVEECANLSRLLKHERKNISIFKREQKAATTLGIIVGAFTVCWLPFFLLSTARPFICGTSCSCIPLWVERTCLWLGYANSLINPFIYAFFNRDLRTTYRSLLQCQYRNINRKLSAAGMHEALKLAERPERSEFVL

SMILES	Ki
COc1ccc(-c2ccccc2C(F)(F)F)cc1C1CCNC1 (racemic) [Example 47, (±)-3-(4-Methoxy-2′-trifluoromethyl-biphenyl-3-yl)-pyrrolidine]	7.98 nM
COc1ccc(-c2ccccc2)cc1C1CCN(C)C1 (racemic) [Example 50, (±)-3-(4-Methoxy-biphenyl-3-yl)-1-methyl-pyrrolidine]	150 nM
c1ccc(-c2ccccc2C2CCNC2)cc1 (racemic) [Example 51, (±)-3-Biphenyl-2-yl-pyrrolidine]	120 nM
Cc1cccc(-c2ccccc2C2CCNC2)c1 (racemic) [Example 52, (±)-3-(3′-Methyl-biphenyl-2-yl)-pyrrolidine]	80.2 nM
Cc1ccc(-c2ccccc2C2CCNC2)cc1 (racemic) [Example 54, (±)-3-(4′-Methyl-biphenyl-2-yl)-pyrrolidine]	120 nM
Cc1ccc(-c2ccccc2C2CCN(C)C2)cc1 (racemic) [Example 55, (±)-1-Methyl-3-(4′-methyl-biphenyl-2-yl)-pyrrolidine]	430 nM
Cc1ccccc1-c1ccccc1C1CCNC1 (racemic) [Example 59, (±)-3-(2′-Methyl-biphenyl-2-yl)-pyrrolidine]	210 nM
Cc1ccccc1-c1ccccc1C1CCN(C)C1 (racemic) [Example 60, (±)-1-Methyl-3-(2′-methyl-biphenyl-2-yl)-pyrrolidine]	330 nM
COc1ccccc1-c1ccccc1C1CCNC1 (racemic) [Example 61, (±)-3-(2′-Methoxy-biphenyl-2-yl)-pyrrolidine]	300 nM
COc1ccccc1-c1ccccc1C1CCN(C)C1 (racemic) [Example 62, (±)-3-(2′-Methoxy-biphenyl-2-yl)-1-methyl-pyrrolidine]	730 nM
Clc1cccc(-c2ccc(Cl)cc2C2CCNC2)c1 (racemic) [Example 65, (±)-3-(4,3′-Dichloro-biphenyl-2-yl)-pyrrolidine]	130 nM
COc1ccc(-c2ccccc2C#N)cc1OC1CNC1 [Example 3, 3′-(Azetidin-3-yloxy)-4′-methoxy-biphenyl-2-carbonitrile trifluoroacetate]	33.9 nM
COc1ccc(-c2c(C)cccc2C)cc1OC1CNC1 [Example 6, 3-(4-Methoxy-2′,6′-dimethyl-biphenyl-3-yloxy)-azetidine trifluoroacetate]	8.2 nM
COc1ccc(-c2c(Cl)cccc2C(F)(F)F)cc1OC1CNC1 [Example 10, 3-(2′-Chloro-4-methoxy-6′-trifluoromethyl-biphenyl-3-yloxy)-azetidine trifluoroacetate]	112 nM
COc1ccc(-c2ccccc2Cl)cc1OC1CN(C(C)C)C1 [Example 18, 3-(2′-Chloro-4-methoxy-biphenyl-3-yloxy)-1-isopropyl-azetidine trifluoroacetate]	533 nM
FC(F)(F)c1ccccc1-c1cccc(OC2CNC2)c1 [Example 20, 3-(2′-Trifluoromethyl-biphenyl-3-yloxy)-azetidine]	25.5 nM
Clc1ccccc1-c1cccc(OC2CNC2)c1 [Example 21, 3-(2′-Chloro-biphenyl-3-yloxy)-azetidine]	34.6 nM
Clc1ccc(-c2ccccc2Cl)cc1OC1CNC1 [Example 24, 3-(4,2′-Dichloro-biphenyl-3-yloxy)-azetidine trifluoroacetate]	8.89 nM
FC(F)(F)c1ccccc1-c1ccc(Cl)c(OC2CNC2)c1 [Example 25, 3-(4-Chloro-2′-trifluoromethyl-biphenyl-3-yloxy)-azetidine trifluoroacetate]	10.5 nM
Cc1ccccc1-c1ccc(Cl)c(OC2CNC2)c1 [Example 26, 3-(4-Chloro-2′-methyl-biphenyl-3-yloxy)-azetidine trifluoroacetate]	15.5 nM
Cc1cccc(-c2ccc(Cl)c(OC3CNC3)c2)c1 [Example 27, 3-(4-Chloro-3′-methyl-biphenyl-3-yloxy)-azetidine trifluoroacetate]	410 nM
Cc1ccccc1-c1ccc(OC2CCC2)c(OC2CNC2)c1 [Example 34, 3-(4-Cyclobutoxy-2′-methyl-biphenyl-3-yloxy)-azetidine]	667 nM

Continued, values first:

Ki	SMILES
5.46 nM	COc1ccc(-c2ccccc2C)cc1C1CCNC1 (racemic) [Example 43, (±)-3-(4-Methoxy-2′-methyl-biphenyl-3-yl)-pyrrolidine]
19 nM	COc1ccc(-c2cccc(F)c2C)cc1C1CCNC1 (racemic) [Example 44, (±)-3-(3′-Fluoro-4-methoxy-2′-methyl-biphenyl-3-yl)-pyrrolidine]
52 nM	COc1ccc(-c2cccc(F)c2F)cc1C1CCNC1 (racemic) [Example 45, (±)-3-(2′,3′-Difluoro-4-methoxy-biphenyl-3-yl)-pyrrolidine]
117 nM	COc1ccc(-c2cccc(C(F)(F)F)c2)cc1C1CCNC1 (racemic) [Example 46, (±)-3-(4-Methoxy-3′-trifluoromethyl-biphenyl-3-yl)-pyrrolidine]
19.8 nM	COc1ccc(-c2ccccc2OC(F)(F)F)cc1C1CCNC1 (racemic) [Example 48, (±)-3-(4-Methoxy-2′-trifluoromethoxy-biphenyl-3-yl)-pyrrolidine]
130 nM	COc1ccc(-c2ccccc2)cc1C1CCNC1 (racemic) [Example 49, (±)-3-(4-Methoxy-biphenyl-3-yl)-pyrrolidine]
55.9 nM	Cc1ccc(-c2ccccc2C2CCNC2)cc1C (racemic) [Example 57, (±)-3-(3′,4′-Dimethyl-biphenyl-2-yl)-pyrrolidine]
1700 nM	COc1ccc(C)cc1-c1ccccc1C1CCNC1 (racemic) [Example 63, (±)-3-(2′-Methoxy-5′-methyl-biphenyl-2-yl)-pyrrolidine]
380 nM	Cc1cc(-c2ccc(Cl)cc2C2CCNC2)ccc1F (racemic) [Example 66, (±)-3-(4-Chloro-4′-fluoro-3′-methyl-biphenyl-2-yl)-pyrrolidine]
120 nM	Cc1ccc(-c2ccc(Cl)cc2C2CCNC2)cc1C (racemic) [Example 67, (±)-3-(4-Chloro-3′,4′-dimethyl-biphenyl-2-yl)-pyrrolidine]
21 nM	COc1ccc(-c2ccc(F)cc2C)cc1OC1CNC1 [Example 2, 3-(4′-Fluoro-4-methoxy-2′-methyl-biphenyl-3-yloxy)-azetidine]
10 nM	COc1ccc(-c2ccccc2OC(F)(F)F)cc1OC1CNC1 [Example 7, 3-(4-Methoxy-2′-trifluoromethoxy-biphenyl-3-yloxy)-azetidine]
50 nM	COc1ccc(-c2ccccc2OC)cc1OC1CNC1 [Example 9, 3-(4,2′-Dimethoxy-biphenyl-3-yloxy)-azetidine]
760 nM	COc1ccc(-c2ccc(C)cc2)cc1OC1CNC1 [Example 11, 3-(4-Methoxy-4′-methyl-biphenyl-3-yloxy)-azetidine]
770 nM	COc1ccc(-c2ccc(F)c(C)c2)cc1OC1CNC1 [Example 12, 3-(4′-Fluoro-4-methoxy-3′-methyl-biphenyl-3-yloxy)-azetidine]
1000 nM	COc1ccc(-c2cccc(C)c2)cc1OC1CNC1 [Example 13, 3-(4-Methoxy-3′-methyl-biphenyl-3-yloxy)-azetidine]

Ki	SMILES
250 nM	COc1ccc(-c2ccc(C)c(C)c2)cc1OC1CNC1 [Example 14, 3-(4-Methoxy-3′,4′-dimethyl-biphenyl-3-yloxy)-azetidine]
120 nM	COc1ccc(-c2ccccc2)cc1OC1CNC1 [Example 15, 3-(4-Methoxy-biphenyl-3-yloxy)-azetidine]
114 nM	COc1ccc(-c2cc(C)ccc2C)cc1OC1CNC1 [Example 16, 3-(4-Methoxy-2′,5′-dimethyl-biphenyl-3-yloxy)-azetidine]
300 nM	COc1ccc(-c2ccccc2Cl)cc1OC1CN(C2CCC2)C1 [Example 19, 3-(2′-Chloro-4-methoxy-biphenyl-3-yloxy)-1-cyclobutyl-azetidine trifluoroacetate]
752 nM	Cc1cccc(-c2cccc(OC3CNC3)c2)c1 [Example 22, 3-(3′-Methyl-biphenyl-3-yloxy)-azetidine]
67 nM	Cc1ccccc1-c1cccc(OC2CNC2)c1 [Example 23, 3-(2′-Methyl-biphenyl-3-yloxy)-azetidine]
127 nM	N#Cc1ccc(-c2ccccc2C(F)(F)F)cc1OC1CNC1 [Example 28, 3-(Azetidin-3-yloxy)-2′-trifluoromethyl-biphenyl-4-carbonitrile]
10000 nM	N#Cc1ccc(-c2ccccc2)cc1OC1CNC1 [Example 29, 3-(Azetidin-3-yloxy)-biphenyl-4-carbonitrile]
508 nM	Cc1ccccc1-c1ccc(C#N)c(OC2CNC2)c1 [Example 30, 3-(Azetidin-3-yloxy)-2′-methyl-biphenyl-4-carbonitrile]
454 nM	CCOc1ccc(-c2ccccc2C)cc1OC1CNC1 [Example 32, 3-(4-Ethoxy-2′-methyl-biphenyl-3-yloxy)-azetidine hydrochloride]
525 nM	Cc1ccccc1-c1ccc(OCC(F)(F)F)c(OC2CNC2)c1 [Example 33, 3-[2′-Methyl-4-(2,2,2-trifluoro-ethoxy)-biphenyl-3-yloxy]-azetidine]
755 nM	Cc1ccccc1-c1ccc(OCC2CC2)c(OC2CNC2)c1 [Example 35, 3-(4-Cyclopropylmethoxy-2′-methyl-biphenyl-3-yloxy)-azetidine]
10000 nM	Cc1ccccc1-c1ccc(OC(C)C)c(OC2CNC2)c1 [Example 36, 3-(4-Isopropoxy-2′-methyl-biphenyl-3-yloxy)-azetidine]
2270 nM	CCN(CC)C(=O)c1ccc(-c2ccccc2C(F)(F)F)cc1OC1CNC1 [Example 37, 3-(Azetidin-3-yloxy)-2′-trifluoromethyl-biphenyl-4-carboxylic acid diethylamide]
189 nM	Cc1cccc(-c2ccc(Cl)cc2OC2CNC2)c1 [Example 38, 3-(4-Chloro-3′-methyl-biphenyl-2-yloxy)-azetidine]
